Where two headings read alike, the source gives them in different places. Blank lines part the entries; values can stand above or below the compound they belong to.
How the values were obtained:
HCT116 WT cells = assay: HCT116 WT cell proliferation / viability (CellTiter-Glo, 6 days); assay type: cell-based; conditions: Homo sapiens, HCT-116, 144 h, read-out: HCT-116 WT IC50
In short: (§1)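 Viability read by CellTiter-Glo after 6-day compound exposure of MTAP-null and wild-type HCT116 cells grown in RPMI 1640 with 10% FBS. Dosing used 1:3 steps from 1 or 10 μM (8-9 points) or 1:2 steps from 10 or 50 μM (22 points); IC50 taken where fitted curve crosses 50% of control.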

HCT116 MTAP null cells = assay: HCT116 MTAP null cell proliferation / viability (CellTiter-Glo, 6 days); assay type: cell-based; conditions: HCT116-MTAP null, 144 h, read-out: HCT-116 MTAP null IC50
In short: as §1

[1] = HCT116 WT cells, 6 days, CellTiter-Glo
[2] = HCT116 MTAP null cells, 6 days, CellTiter-Glo

SMILES: CC(C)N(Cc1ccc(C(F)(F)F)cn1)C(=O)c1cc2c(cc1F)nc(N)c1cnn(C)c12 [Example 805, 4-amino-7-fluoro-1-methyl-N-(2-propanyl)-N-((5-(trifluoromethyl)-2-pyridinyl)methyl)-1H-pyrazolo[4,3-c]quinoline-8-carboxamide]
- IC50 (HCT116 WT cells; [1]): 121 nM
- IC50 (HCT116 MTAP null cells; [2]): 8 nM

SMILES: COc1nc(C(F)(F)F)ccc1CN(C)C(=O)c1cc2c(cc1F)nc(N)c1cnn(C)c12 [Example 806, 4-amino-7-fluoro-N-((2-methoxy-6-(trifluoromethyl)-3-pyridinyl)methyl)-N,1-dimethyl-1H-pyrazolo[4,3-c]quinoline-8-carboxamide]
- IC50 (HCT116 WT cells; [1]): 3160 nM
- IC50 (HCT116 MTAP null cells; [2]): 56 nM

SMILES: Cn1ncc2c(N)nc3cc(F)c(C(=O)N(Cc4ccc(C(F)(F)F)cn4)C4CCC4)cc3c21 [Example 807, 4-amino-N-cyclobutyl-7-fluoro-1-methyl-N-((5-(trifluoromethyl)-2-pyridinyl)methyl)-1H-pyrazolo[4,3-c]quinoline-8-carboxamide]
- IC50 (HCT116 WT cells; [1]): 114 nM
- IC50 (HCT116 MTAP null cells; [2]): 5 nM

SMILES: Cn1ncc2c3cc(C(=O)N(Cc4ccc(C(F)(F)F)cn4)C4CC4)c(Cl)cc3nc(N)c21 [Example 808, 4-amino-7-chloro-N-cyclopropyl-3-methyl-N-((5-(trifluoromethyl)-2-pyridinyl)methyl)-3H-pyrazolo[3,4-c]quinoline-8-carboxamide]
- IC50 (HCT116 WT cells; [1]): 3130 nM
- IC50 (HCT116 MTAP null cells; [2]): 52 nM

SMILES: Cn1ncc2c(N)nc3cc(F)c(C(=O)N(Cc4ncc(C(F)(F)F)cc4F)C4CC4)cc3c21 [Example 809, 4-amino-N-cyclopropyl-7-fluoro-N-((3-fluoro-5-(trifluoromethyl)-2-pyridinyl)methyl)-1-methyl-1H-pyrazolo[4,3-c]quinoline-8-carboxamide]
- IC50 (HCT116 WT cells; [1]): 1790 nM
- IC50 (HCT116 MTAP null cells; [2]): 31 nM

SMILES: CN(Cc1ccc(C(F)(F)F)cn1)C(=O)c1cc2c(cc1C(F)(F)F)nc(N)c1cnn(C)c12 [Example 810, 4-amino-N,1-dimethyl-7-(trifluoromethyl)-N-((5-(trifluoromethyl)-2-pyridinyl)methyl)-1H-pyrazolo[4,3-c]quinoline-8-carboxamide]
- IC50 (HCT116 WT cells; [1]): 13800 nM
- IC50 (HCT116 MTAP null cells; [2]): 226 nM

SMILES: CN(Cc1ccc(C(F)(F)F)nn1)C(=O)c1cc2c(cc1C(F)(F)F)nc(N)c1cnn(C)c12 [Example 811, 4-amino-N,1-dimethyl-7-(trifluoromethyl)-N-((6-(trifluoromethyl)-3-pyridazinyl)methyl)-1H-pyrazolo[4,3-c]quinoline-8-carboxamide]
- IC50 (HCT116 WT cells; [1]): > 50000 nM
- IC50 (HCT116 MTAP null cells; [2]): 645 nM

SMILES: Cn1ncc2c(N)nc3cc(C(F)(F)F)c(C(=O)N(Cc4ccc(C(F)(F)F)cn4)C4CC4)cc3c21 [Example 812, 4-amino-N-cyclopropyl-1-methyl-7-(trifluoromethyl)-N-((5-(trifluoromethyl)-2-pyridinyl)methyl)-1H-pyrazolo[4,3-c]quinoline-8-carboxamide]
- IC50 (HCT116 WT cells; [1]): 14100 nM
- IC50 (HCT116 MTAP null cells; [2]): 237 nM

SMILES: Cn1ncc2c(N)nc3cc(C(F)(F)F)c(C(=O)N(Cc4ccc(C(F)(F)F)nn4)C4CC4)cc3c21 [Example 813, 4-amino-N-cyclopropyl-1-methyl-7-(trifluoromethyl)-N-((6-(trifluoromethyl)-3-pyridazinyl)methyl)-1H-pyrazolo[4,3-c]quinoline-8-carboxamide]
- IC50 (HCT116 WT cells; [1]): 29300 nM
- IC50 (HCT116 MTAP null cells; [2]): 676 nM

SMILES: C[C@H](C1CC1)N(Cc1ccc(C(F)(F)F)nn1)C(=O)c1cc2c3c(c(N)nc2cc1F)COC3 [Example 814, 4-amino-N-((1R)-1-cyclopropylethyl)-7-fluoro-N-((6-(trifluoromethyl)-3-pyridazinyl)methyl)-1,3-dihydrofuro[3,4-c]quinoline-8-carboxamide]
- IC50 (HCT116 WT cells; [1]): 1170 nM
- IC50 (HCT116 MTAP null cells; [2]): 44 nM

SMILES: C[C@@H](C1CC1)N(Cc1ccc(C(F)(F)F)nn1)C(=O)c1cc2c3c(c(N)nc2cc1F)COC3 [Example 815, 4-amino-N-((1S)-1-cyclopropylethyl)-7-fluoro-N-((6-(trifluoromethyl)-3-pyridazinyl)methyl)-1,3-dihydrofuro[3,4-c]quinoline-8-carboxamide]
- IC50 (HCT116 WT cells; [1]): 301 nM
- IC50 (HCT116 MTAP null cells; [2]): 18 nM

SMILES: Nc1nc2cc(F)c(C(=O)N(Cc3ccc(OCC(F)(F)F)nn3)CC3CC3)cc2c2c1COC2 [Example 816, 4-amino-N-(cyclopropylmethyl)-7-fluoro-N-((6-(2,2,2-trifluoroethoxy)-3-pyridazinyl)methyl)-1,3-dihydrofuro[3,4-c]quinoline-8-carboxamide]
- IC50 (HCT116 WT cells; [1]): 2490 nM
- IC50 (HCT116 MTAP null cells; [2]): 78 nM

SMILES: Cn1ncc2c3cc(C(=O)N(Cc4ccc(OCC(F)(F)F)nn4)CC4CC4)c(F)cc3nc(N)c21 [Example 817, 4-amino-N-(cyclopropylmethyl)-7-fluoro-3-methyl-N-((6-(2,2,2-trifluoroethoxy)-3-pyridazinyl)methyl)-3H-pyrazolo[3,4-c]quinoline-8-carboxamide]
- IC50 (HCT116 WT cells; [1]): 689 nM
- IC50 (HCT116 MTAP null cells; [2]): 28 nM

SMILES: CC(C)CN(Cc1ccc(C(F)(F)F)cn1)C(=O)c1ccc2nc(N)c3c(c2c1)COC3(C)C [Example 889]
- IC50 (HCT116 WT cells): 4740 nM
- IC50 (HCT116 MTAP null cells): 202 nM

Second part, the compound after the results:

- IC50 (HCT116 WT cells; [1]): 161 nM
- IC50 (HCT116 MTAP null cells; [2]): 7 nM
SMILES: C[C@H]1OCc2c1c(N)nc1cc(F)c(C(=O)N(Cc3ccc(OCC(F)(F)F)nn3)CC3CC3)cc21 [Example 818, (3R)-4-amino-N-(cyclopropylmethyl)-7-fluoro-3-methyl-N-((6-(2,2,2-trifluoroethoxy)-3-pyridazinyl)methyl)-1,3-dihydrofuro[3,4-c]quinoline-8-carboxamide]

- IC50 (HCT116 WT cells; [1]): 1340 nM
- IC50 (HCT116 MTAP null cells; [2]): 62 nM
SMILES: Cn1cc(N(Cc2ccc(C(F)(F)F)cc2)C(=O)c2cc3c4c(c(N)nc3cn2)COC4)cn1 [Example 882, 4-amino-N-(1-methyl-1H-pyrazol-4-yl)-N-(4-(trifluoromethyl)benzyl)-1,3-dihydrofuro[3,4-c][1,7]naphthyridine-8-carboxamide 2,2,2-trifluoroacetate]

- IC50 (HCT116 WT cells; [1]): 514 nM
- IC50 (HCT116 MTAP null cells; [2]): 20 nM
SMILES: Nc1nc2ccc(C(=O)N(Cc3ccc(C(F)(F)F)cn3)c3cccc(F)c3)cc2c2c1COC2 [Example 883, 4-amino-N-(3-fluorophenyl)-N-((5-(trifluoromethyl)-2-pyridinyl)methyl)-1,3-dihydrofuro[3,4-c]quinoline-8-carboxamide]

- IC50 (HCT116 WT cells; [1]): 733 nM
- IC50 (HCT116 MTAP null cells; [2]): 27 nM
SMILES: Cn1cc(N(Cc2ccc(C(F)(F)F)cn2)C(=O)c2ccc3nc(N)c4c(c3c2)COC4)cn1 [Example 884, 4-amino-N-(1-methyl-1H-pyrazol-4-yl)-N-((5-(trifluoromethyl)-2-pyridinyl)methyl)-1,3-dihydrofuro[3,4-c]quinoline-8-carboxamide]

- IC50 (HCT116 WT cells; [1]): 596 nM
- IC50 (HCT116 MTAP null cells; [2]): 25 nM
SMILES: Cn1cc(N(Cc2ccc(C(F)(F)F)cn2)C(=O)c2cc3c4c(c(N)nc3cn2)COC4)cn1 [Example 885, 4-amino-N-(1-methyl-1H-pyrazol-4-yl)-N-((5-(trifluoromethyl)-2-pyridinyl)methyl)-1,3-dihydrofuro[3,4-c][1,7]naphthyridine-8-carboxamide]

- IC50 (HCT116 WT cells; [1]): > 10000 nM
- IC50 (HCT116 MTAP null cells; [2]): 1690 nM
SMILES: Cn1cc(N(Cc2ccc(C(F)(F)F)cn2)C(=O)c2cnc3nc(N)c4c(c3c2)COC4)cn1 [Example 886, 4-amino-N-(1-methyl-1H-pyrazol-4-yl)-N-((5-(trifluoromethyl)-2-pyridinyl)methyl)-1,3-dihydrofuro[3,4-c][1,8]naphthyridine-8-carboxamide]

- IC50 (HCT116 WT cells; [1]): 496 nM
- IC50 (HCT116 MTAP null cells; [2]): 25 nM
SMILES: C[C@H](c1ncccn1)N(Cc1ccc(C(F)(F)F)cn1)C(=O)c1ccc2nc(N)c3c(c2c1)CCOC3 [Example 887, 5-amino-N-[(1R)-1-pyrimidin-2-ylethyl]-N-[[5-(trifluoromethyl)-2-pyridyl]methyl]-2,4-dihydro-1H-pyrano[3,4-c]quinoline-9-carboxamide]

- IC50 (HCT116 WT cells; [1]): 231 nM
- IC50 (HCT116 MTAP null cells; [2]): 21 nM
SMILES: C[C@H](c1ncccn1)N(Cc1ccc(C(F)(F)F)cn1)C(=O)c1ccc2nc(N)c3c(c2c1)OCC3 [Example 888, 4-amino-N-[(1R)-1-pyrimidin-2-ylethyl]-N-[[5-(trifluoromethyl)-2-pyridyl]methyl]-2,3-dihydrofuro[3,2-c]quinoline-8-carboxamide]

- IC50 (HCT116 WT cells; [1]): 156 nM
- IC50 (HCT116 MTAP null cells; [2]): 14 nM
SMILES: CC1OCc2c1c(N)nc1ccc(C(=O)N(Cc3ccc(C(F)(F)F)cn3)Cc3ncccc3F)cc21 (stereo not shown) [Example 890, 4-amino-N-((3-fluoropyridin-2-yl)methyl)-3-methyl-N-((5-(trifluoromethyl)pyridin-2-yl)methyl)-1,3-dihydrofuro[3,4-c]quinoline-8-carboxamide]

- IC50 (HCT116 WT cells; [1]): 1900 nM
- IC50 (HCT116 MTAP null cells; [2]): 73 nM
SMILES: CC1OCc2c1c(N)nc1ccc(C(=O)N(Cc3ccc(C#N)cn3)C(C)C3CCOCC3)cc21 (stereo not shown) [Example 892, 4-amino-N-((5-cyanopyridin-2-yl)methyl)-3-methyl-N-(1-(tetrahydro-2H-pyran-4-yl)ethyl)-1,3-dihydrofuro[3,4-c]quinoline-8-carboxamide]

- IC50 (HCT116 WT cells; [1]): 550 nM
- IC50 (HCT116 MTAP null cells; [2]): 51 nM
SMILES: CC1OCc2c1c(N)nc1ccc(C(=O)N(Cc3ccc(C(F)(F)F)cn3)CC3CCOCC3)cc21 (stereo not shown) [Example 895, 4-amino-3-methyl-N-((tetrahydro-2H-pyran-4-yl)methyl)-N-((5-(trifluoromethyl)pyridin-2-yl)methyl)-1,3-dihydrofuro[3,4-c]quinoline-8-carboxamide]

- IC50 (HCT116 WT cells; [1]): 1800 nM
- IC50 (HCT116 MTAP null cells; [2]): 88 nM
SMILES: CC1OCc2c1c(N)nc1ccc(C(=O)N(Cc3ccc(C#N)cn3)CC3CCOCC3)cc21 (stereo not shown) [Example 896, 4-amino-N-((5-cyanopyridin-2-yl)methyl)-3-methyl-N-((tetrahydro-2H-pyran-4-yl)methyl)-1,3-dihydrofuro[3,4-c]quinoline-8-carboxamide]

— patent US20240101570A1 (AMGEN INC., priority 2020, published 2024)
